Test results taken from US20210364494A1, “CELL-SUBSTRATE IMPEDANCE MONITORING OF CANCER CELLS OF DIFFERENT LINEAGE, ORIGIN, OR STAGE” (ACEA BIOSCIENCES, INC., priority 2017, published 2021).

Assays:
Type in all cases: cell-based, human
[1] = test system: NK-92-mediated cytolysis of A549 cells; assay: Inhibition of NK-92-mediated cytolysis of target cells by signaling pathway inhibitors (RT-CES)
Method: (FIG. 31A) A549 cells were seeded in the chambers of E-PLATES. Twenty four hours after seeding NK-cells at a density of 16:1 (E/T ratio) were pre-incubated with the different concentrations of the MEK inhibitor PD 98059 for thirty minutes and then added to A549 cells at the indicated time point (arrow). The viability of A549 cells were continually monitored using the RT-CES system. (FIG. 31B) The extent of NK-92 mediated cytolystic activity in the presence of MEK inhibitor was calculated at the indicated times post-NK addition as described in materials and methods section. (FIG. 31C) The effect of PI3 Kinase inhibitor Wortmannin on NK-92 mediated cytolysis of A549 cells. The cells were treated with the inhibitor as described in (FIG. 31A). (FIG. 31D) Percent cytolytic activity of NK-92 cells was calculated at the end of the experiment described in (FIG. 31C).
Cytolytic analysis. Target cells were seeded into the chambers of either 16-chamber or 96-chamber E-plate in 100 μL of media. Cell growth was dynamically monitored using the RT-CES system for a period of 24-34 hours, depending on the experiment until they reached log growth phase and formed a monolayer. […]
(§1) Inhibition of NK-mediated cytolysis of target cells by agents which block the signaling pathways leading to cytotoxicity. […] We calculated percent inhibition of cytolysis for both inhibitors at different time points after NK addition. […]

[2] = test system: A549 cells; assay: Dynamic monitoring of drug interaction with target cells by RT-CES
Method: Drug Treatment and Cytotoxicity Assessment. […] The indicated cell numbers were seeded per chamber of ACEA's 16X or 96X E-Plate (cartridge for monitoring cell-substrate impedance) in 100 μL final volume.
In order to observe the kinetics of drug interaction with target cells, A549 non-small lung cancer cells were seeded in ACEA 96X E-Plate™ and continuously monitored until the cells reached the log growth phase at which point different concentrations of paclitaxel were added to the cells at the indicated final concentration. […] While it remains to be determined if this phenomenon is due to metabolism and inactivation of paclitaxel or due to the emergence of paclitaxel-resistant subpopulation, this experiment clearly exemplifies the tremendous advantage of real-time measurement which is offered by the RT-CES system and allows the user to the opportunity to observe and assess the entire history of drug interaction with the target cells which provides further information in addition to cell viability or cytotoxicity. The phenomenon observed in FIG. 20A would've been easily missed by traditional single-point assays such as MTT.
Yet another major advantage of using the RT-CES system to continually monitor the interaction of drugs with target cells is that the user can obtain insight into the mechanism of action of the drug of interest. […] The cells were treated with either DMSO as the vehicle control or with 100 μM Olomoucine which is a CDK inhibitor and induces cell cycle arrest either at G1→S transition or at the G2→M transition, depending on the cell line. […] The control cells treated with DMSO continue to proliferate until they reach confluence, at which time they are contact inhibited and the Cell Index recording levels off. […]
as §1

[3] = test system: H460 cells; assay: Time-dependent cell index of cancer cells treated with anticancer drug (cell-substrate impedance)
Method: In this experiment, H460 cells were introduced into chambers of a 16X cell-substrate impedance monitoring cartridge (16X E-Plate). The cartridge was positioned on a cartridge station that was located in an incubator maintaining conditions of 37° C. and 5% CO2. The cells were cultured and treated at their exponential growth phase with different concentrations of paclitaxel. The dynamic response of the cells to different doses of paclitaxel was monitored by monitoring cell-substrate impedance in real time every 15 minutes for 50 hours after treatment using a cell-substrate impedance monitoring system. The cell-substrate impedance monitoring system calculated the cell index at each time point monitored and plotted the cell index as a function of time. […] However, the cell index reached a minimum at a time dependent on the compound concentration, between about 15 hours and 20 hours after compound addition. After that point, there was a gradual increase in cell index in these chambers.
H460 cells were introduced into chambers of a 16X cell-substrate impedance monitoring cartridge (16X E-Plate). […] The dynamic response of the cells to different doses of AC101103 was monitored by measuring impedance in real time every 30 minutes for about 20 hours after treatment on the cell-substrate monitoring system. […]

[4] = A549 cells, highest concentration

Row | SMILES | inhibition of NK-92-mediated cytolysis ([1]; NK-92 pre-incubated with inhibitor, then added to A549 target cells) | time dependence of percent inhibition of cytolysis ([1]; different time points after NK addition) | effect of inhibitor alone on target cell baseline ([2]; A549 target cells incubated with inhibitor alone, no NK cells) | initial effect on Cell Index (with Annexin V staining) [2, 4] | later course of Cell Index after the initial effect [2, 4] | time over which cell index exhibited a near-constant value ([3]; 33 nanomolar) | cell index response after compound addition ([3]; concentrations between 67 nanomolar and 500 nanomolar)
1 | COc1cccc(-c2cc(=O)c3ccccc3o2)c1N [PD98059] | dose-dependently inhibited NK-92-mediated cytolysis of A549 cells | consistent inhibition of cytolysis at all the indicated time points | minimal effect on the baseline |  |  |  | 
2 | CC(=O)O[C@H]1C(=O)[C@@]2(C)[C@H]([C@H](OC(=O)c3ccccc3)[C@]3(O)C[C@H](OC(=O)[C@H](O)[C@@H](NC(=O)c4ccccc4)c4ccccc4)C(C)=C1C3(C)C)[C@]1(OC(C)=O)CO[C@@H]1C[C@@H]2O [paclitaxel] |  |  |  | initially induces a cytotoxic effect which is mainly due to cell death | recover from the initial cytotoxic effect of the drug and start to re-proliferate | about 15 hours | gradual decrease in cell index
